For 19 compounds, IC50 and melting point results are on record in article PMC6273168, “Synthesis and Biological Evaluation of Novel 4-Morpholino-7,8-dihydro-5H-thiopyrano[4,3-d]pyrimidine Derivatives Bearing Phenylpyridine/ Phenylpyrimidine-Carboxamides” (Molecules, 2016).

The subject of data set [1] is MCF-7 (human breast cancer) cell line. Briefly: MTT cell proliferation (cytotoxicity) assay, MCF-7. Format: cell-based. Particulars: average of two separate determinations. As to the method: (§1) Taking GDC-0941 as reference compound, the target compounds […], 12a–j, 13a–g and 14a–g ere evaluated for the cytotoxicity against the three cancer cell lines A549, PC-3 and MCF-7 usg 3-(4,5-dimethylthiazolyl-2)-2,5-diphenyltetrazolium bromide (MTT) cell proliferation assays. In addition, one selected compounds 12h was fher evaluated for PI3Kα kinase inhibitory activity. The results, expressed as IC50 values or inhibitory rate, are sumrized in Table 1, Table 2 and Table 3.
(§2) The in vitro cytotoxic activities of all the compounds 11a–11j, 12a–12j, 13a–13g and 14a–14g was evaluated with A549, PC-3 and MCF-7 cell lines by the standard MTT assay, with GDC-0941 as positive control. The cancer cell lines were cultured in minimum essential medium (MEM) supplement with 10% fetal bovine serum (FBS). Approximately 4 × 10^3 cells, suspended in MEM medium, were plated onto each well of a 96-well plate and incubated in 5% CO2 at 37 °C for 24 h. The test compounds at indicated final concentrations were added to the culture medium and the cell cultures were continued for 72 h. Fresh MTT was added to each well at a terminal concentration of […] and incubated with cells at 37 °C for 4 h. The formazan crystals were dissolved in 100 µL DMSO each well, and the absorbency at 492 nm (for absorbance of MTT formazan) and 630 nm (for the reference wavelength) was measured with an ELISA reader. All of the compounds were tested three times in each of the cell lines. The results expressed as inhibition rates or IC50 (half-maximal inhibitory concentration) were the averages of two determinations and calculated by using the Bacus Laboratories Inc. Slide Scanner (Bliss) software (the Bacus Laboratories Inc. Slide Scanner (BLISS) system, Lombard, IL, USA).

Data set [2] has as its system PC-3 (human prostatic cancer) cell line. Briefly: MTT cell proliferation (cytotoxicity) assay, PC-3. Format: cell-based. Particulars: 72 h, average of two separate determinations. How it is done:
as §1, §2

In data set [3] the test system is A549 (human lung cancer) cell line. Put plainly: MTT cell proliferation (cytotoxicity) assay, A549. Format: cell-based. Particulars: average of two separate determinations. How it is done: as §1, §2
Setting [4] is: Homo sapiens, MCF7, 72 h, Table 1.
Where [5] appears, read: Homo sapiens, A549, 72 h, Table 1.

The term IC50 denotes the concentration that inhibits the measured activity by half. Usually melting point stands for the temperature, or range, at which the solid turns liquid. Compound `O=C(Nc1ccc(-c2nc3c(c(N4CCOCC4)n2)CSCC3)cc1)c1cc(-c2cccc(F)c2)ccn1` [Compound 11b, N-(4-(4-Morpholino-7,8-dihydro-5H-thiopyrano[4,3-d]pyrimidin-2-yl)phenyl)-4-(3-fluorophenyl)pyridine amide] displayed a melting point of 236.5 to 238.4 °C. The compound also registered a half-maximal inhibitory concentration (IC50) in data set [1] (setting [4]) of 51.7 ± 1.56 µM. For the same compound, in data set [2] (Homo sapiens, Table 1), the IC50 turned out to be 60.3 ± 1.24 µM. The compound further displayed a half-maximal inhibitory concentration (IC50) in data set [3] (setting [5]) of 48.08 ± 0.13 µM.
Regarding `O=C(Nc1ccc(-c2nc3c(c(N4CCOCC4)n2)CSCC3)cc1)c1cc(-c2ccc(F)cc2F)ccn1` [Compound 11c, N-(4-(4-Morpholino-7,8-dihydro-5H-thiopyrano[4,3-d]pyrimidin-2-yl)phenyl)-4-(2,4-difluorophenyl) picolinamide], the melting point lay in the range of 235 to 236.7 °C.
Compound `O=C(Nc1ccc(-c2nc3c(c(N4CCOCC4)n2)CSCC3)cc1)c1cc(-c2ccc(C(F)(F)F)cc2)ccn1` [Compound 11d, N-(4-(4-Morpholino-7,8-dihydro-5H-thiopyrano[4,3-d]pyrimidin-2-yl)phenyl)-4-(4-trifluoromethylphenyl) picolinamide] showed a melting point of 229.3 to 231.7 °C. The half-maximal inhibitory concentration (IC50) in data set [1] (setting [4]) came out at 50.3 ± 2.18 µM. This compound registered an IC50 in data set [3] (setting [5]) of 43.46 ± 0.12 µM.
For the compound `O=C(Nc1ccc(-c2nc3c(c(N4CCOCC4)n2)CSCC3)cc1)c1cc(-c2ccc(Cl)cc2)ccn1` [Compound 11e, N-(4-(4-Morpholino-7,8-dihydro-5H-thiopyrano[4,3-d]pyrimidin-2-yl)phenyl)-4-(4-chlorophenyl)pyridine amide], the melting point was in the range of 235.3 to 236.2 °C. The IC50 in data set [1] (setting [4]) was determined as 20.9 ± 1.02 µM. This compound displayed an IC50 in data set [2] (Homo sapiens, Table 1) of 23.2 ± 0.76 µM. Further, in data set [3] (setting [5]), the IC50 worked out at 19.3 ± 0.86 µM.
The compound `O=C(Nc1ccc(-c2nc3c(c(N4CCOCC4)n2)CSCC3)cc1)c1cc(-c2ccc(F)cc2)ccn1` [Compound 11f, N-(4-(4-Morpholino-7,8-dihydro-5H-thiopyrano[4,3-d]pyrimidin-2-yl)phenyl)-4-(4-fluorophenyl)pyridine amide] returned a melting point of 248.1 to 249.6 °C.
With `Cc1ccc(-c2ccnc(C(=O)Nc3ccc(-c4nc5c(c(N6CCOCC6)n4)CSCC5)cc3)c2)cc1` [Compound 11g, N-(4-(4-Morpholino-7,8-dihydro-5H-thiopyrano[4,3-d]pyrimidin-2-yl)phenyl)-4-(4-methylphenyl) picolinamide], the melting point lay in the range of 275 to 276.8 °C.
Same read-out and setting: in the case of `CCc1ccc(-c2ccnc(C(=O)Nc3ccc(-c4nc5c(c(N6CCOCC6)n4)CSCC5)cc3)c2)cc1` [Compound 11h, N-(4-(4-Morpholino-7,8-dihydro-5H-thiopyrano[4,3-d]pyrimidin-2-yl)phenyl)-4-(4-ethylphenyl) picolinamide] it was 229.8 to 232.1 °C.
In turn, `COc1ccc(-c2ccnc(C(=O)Nc3ccc(-c4nc5c(c(N6CCOCC6)n4)CSCC5)cc3)c2)cc1` [Compound 11i, N-(4-(4-Morpholino-7,8-dihydro-5H-thiopyrano[4,3-d]pyrimidin-2-yl)phenyl)-4-(4methoxyphenyl) pyridine-carboxamide] returned a melting point of 233.6 to 235.1 °C. In data set [1] (setting [4]), the half-maximal inhibitory concentration (IC50) was 32.4 ± 1.84 µM. In data set [2] (Homo sapiens, Table 1), this compound came in with an IC50 of 65.66 ± 0.61 µM. The same compound showed an IC50 in data set [3] (setting [5]) of 27.68 ± 0.1 µM.
Take `O=C(Nc1ccc(-c2nc3c(c(N4CCOCC4)n2)CS(=O)(=O)CC3)cc1)c1cc(-c2ccccc2)ccn1` [Compound 12a, N-(4-(4-Morpholino-7,8-dihydro-6,6-dioxide-5H-thiopyrano[4,3-d]pyrimidin-2-yl)phenyl)-4-phenylpyridine Amide]: the melting point lay within 229 to 233.8 °C. Further, the IC50 in data set [2] (Homo sapiens, Table 1) stood at 74.27 ± 0.08 µM.
In turn, `O=C(Nc1ccc(-c2nc3c(c(N4CCOCC4)n2)CS(=O)(=O)CC3)cc1)c1cc(-c2cccc(F)c2)ccn1` [Compound 12b, N-(4-(4-Morpholino-7,8-dihydro-6,6-dioxide-5H-thiopyrano[4,3-d]pyrimidin-2-yl)phenyl)-4-(3-fluoro-phenyl) pyridinecarboxamide] displayed a melting point of 281.5 to 283.8 °C.
For `O=C(Nc1ccc(-c2nc3c(c(N4CCOCC4)n2)CS(=O)(=O)CC3)cc1)c1cc(-c2ccc(F)cc2F)ccn1` [Compound 12c, N-(4-(4-Morpholino-7,8-dihydro-6,6-dioxide-5H-thiopyrano[4,3-d]pyrimidin-2-yl)phenyl)-4-(2,4-difluorophenyl) picolinamide], the melting point lay in the range of 269 to 272.6 °C.
The same measure, in the same setting: in the case of `O=C(Nc1ccc(-c2nc3c(c(N4CCOCC4)n2)CS(=O)(=O)CC3)cc1)c1cc(-c2ccc(C(F)(F)F)cc2)ccn1` [Compound 12d, N-(4-(4-Morpholino-7,8-dihydro-6,6-dioxide-5H-thiopyrano[4,3-d]pyrimidin-2-yl)phenyl)-4-(4-trifluoro-methylphenyl) pyridinecarboxamide] it was above 300 °C; in that of `O=C(Nc1ccc(-c2nc3c(c(N4CCOCC4)n2)CS(=O)(=O)CC3)cc1)c1cc(-c2ccc(Cl)cc2)ccn1` [Compound 12e, N-(4-(4-Morpholino-7,8-dihydro-6,6-dioxide-5H-thiopyrano[4,3-d]pyrimidin-2-yl)phenyl)-4-(4-chloro-phenyl) pyridinecarboxamide], 266.8 to 268.8 °C.
Turning to `O=C(Nc1ccc(-c2nc3c(c(N4CCOCC4)n2)CS(=O)(=O)CC3)cc1)c1cc(-c2ccc(F)cc2)ccn1` [Compound 12f, N-(4-(4-Morpholino-7,8-dihydro-6,6-dioxide-5H-thiopyrano[4,3-d]pyrimidin-2-yl)phenyl)-4-(4-fluoro-phenyl) pyridincarboxamide], the melting point is above 300 °C.
Turning to `Cc1ccc(-c2ccnc(C(=O)Nc3ccc(-c4nc5c(c(N6CCOCC6)n4)CS(=O)(=O)CC5)cc3)c2)cc1` [Compound 12g, N-(4-(4-Morpholino-7,8-dihydro-6,6-dioxide-5H-thiopyrano[4,3-d]pyrimidin-2-yl)phenyl)-4-(4-methylphenyl) pyridinecarboxamide], the melting point was in the range of 290.2 to 293.1 °C. In addition, 28.9 ± 1.29 µM corresponded to half-maximal inhibition in data set [1] (setting [4]) (IC50). In addition, the IC50 in data set [2] (Homo sapiens, Table 1) was 64.71 ± 0.17 µM. This compound had a half-maximal inhibitory concentration (IC50) in data set [3] (setting [5]) of 14.51 ± 0.1 µM.
Compound `COc1ccc(-c2ccnc(C(=O)Nc3ccc(-c4nc5c(c(N6CCOCC6)n4)CS(=O)(=O)CC5)cc3)c2)cc1` [Compound 12i, N-(4-(4-Morpholino-7,8-dihydro-6,6-dioxide-5H-thiopyrano[4,3-d]pyrimidin-2-yl)phenyl)-4-(4-methoxy-phenyl) pyridinecarboxamide] yielded a melting point of 289 to 292.1 °C.
As for `CS(=O)(=O)N1CCN(Cc2cc3nc(-c4cccc5[nH]ncc45)nc(N4CCOCC4)c3s2)CC1` [GDC-0941, reference compound], the IC50 in data set [1] (setting [4]) amounted to 0.07 ± 0.03 µM; in data set [2] (Homo sapiens, Table 1), 0.2 ± 0.08 µM; in data set [3] (setting [5]), 6.99 ± 0.21 µM.
With “N-(4-(4-Morpholino-7,8-dihydro-5H-thiopyrano[4,3-d]pyrimidin-2-yl)phenyl)-6-(p-tolyl)pyrimidine-4-formamide [Compound 13a]”, the half-maximal inhibitory concentration (IC50) is above 100 µM in data set [1] (72 h, Table 2); above 100 µM in data set [2] (Table 2); above 100 µM in data set [3] (72 h, Table 2).
Consider “N-(4-(4-Morpholino-7,8-dihydro-5H-thiopyrano[4,3-d]pyrimidin-2-yl)phenyl)-6-phenylpyridine-4-carboxamide [Compound 13g]”, for which the IC50 in data set [1] (72 h, Table 2) was above 100 µM; in data set [2] (Table 2), above 100 µM; in data set [3] (72 h, Table 2) it was above 100 µM.
